From publication PMC11125646 (Viruses, 2024)
Where two headings read alike, the source gives them in different places.

Key:
[1] = test system: hCoV OC43; test: Inhibition of OC43-induced cytopathogenicity in Vero-76 cells (MTT); format: cell-based
[2] = Cytotoxicity in SK-MES-1 cells (MTT); format: cell-based; settings: human
[3] = test system: hCoV-229E; test: microbe, parasite or virus in culture; format: cell-based; settings: for EC50: Human coronavirus 229E
[4] = in vitro; settings: African green monkey (Cercopithecus aethiops)
[5] = test system: SARS-CoV-2; format: cell-based
[6] = Cytotoxicity in Vero-76 cells (MTT); settings: African green monkey (Cercopithecus aethiops); for CC50: Vero-76 cells
[7] = Cytotoxicity in Caco-2 cells (MTT); format: cell-based, human; settings: human, MTT; for CC50 at 24 h: Caco-2, 24 h; for CC50 at 72 h: Caco-2, 72 h
[8] = test system: Caco-2 cells; test: Cytotoxicity in Caco-2 cells (MTT); format: cell-based, human
[9] = test system: EV-A71; test: Inhibition of EVA71-induced cytopathogenicity (MTT); format: cell-based; settings: Enterovirus A, 50% protection from EVA71-induced cytopathogenicity
[10] = test system: OC43; test: OC43 yield reduction assay in Vero-76 cells; format: cell-based, hCoV-OC43
[11] = test system: OC43; test: OC43 virucidal activity assay; format: cell-based, hCoV-OC43; settings: 0 °C and 37 °C, before cell infection
[12] = test system: OC43; test: Cell pretreatment assay (OC43, Vero-76); format: cell-based, hCoV-OC43; settings: 2 h pre-treatment, 50, 20, 4, 0.8 μM, viability after six days
[13] = test system: OC43; test: Adsorption assay (OC43, Vero-76); settings: virus and cells incubated at 4 °C in presence of compound
[14] = test system: Vero-76 cells
[15] = test system: hCoV-229E; parameters: method as in earlier work; settings: Huh-7 cells; ref [41]; read-out: EC50, replication of HCoV-229E in Huh-7 cells; cited from earlier work
[16] = test system: Mpro of SARS-CoV-2; parameters: method as in earlier work; settings: ref [41]; cited from earlier work
[17] = Betacoronavirus 1, 50% protection of Vero-76 cells from OC43-induced cytopathogenicity, MTT, read-out: OC43 EC50
[18] = 50% protection of SK-MES-1 cells from 229E-induced cytopathogenicity, MTT, read-out: 229E EC50
[19] = Betacoronavirus 1, OC43, Vero 76, cinnamic acids, read-out: OC43 EC50 (Table S1)
[20] = SK-MES-1, cinnamic acids, read-out: 229E EC50 (Table S1)

O=C(/C=C/c1ccc2c(c1)OCO2)Oc1cc(O)c2c(=O)c(O)c(-c3ccc(O)c(O)c3)oc2c1 [Compound 6]
EC50 [1, 17]: 2.4 ± 0.56 µM
CC50 at 48 h [2]: 33 µM
EC50 [3, 18]: > 33 µM
CC50 at 120 h [4]: 30 µM

COc1cc(/C=C/C(=O)O)cc(OC)c1O [Compound A7, sinapic acid]
activity against SARS-CoV-2 (words) [5]: no anti-beta coronavirus activity
activity against OC43 (words) [1]: no anti-beta coronavirus activity
EC50 [1, 19]: > 44 µM
CC50 ([2]; cinnamic acids, read-out: SK-MES-1 CC50 (Table S1)): > 100 µM
EC50 [3, 20]: > 100 µM
CC50 [6]: 44 µM

O=C(/C=C/c1ccc(O)cc1)Oc1cc(O)c2c(=O)c(O)c(-c3ccc(O)c(O)c3)oc2c1 [Compound 3]
activity against OC43 (words) [1]: no evidence of activity
EC50 [1, 17]: > 60 µM
CC50 at 120 h [4]: 60 µM

COc1cc(/C=C/C(=O)Oc2cc(O)c3c(=O)c(O)c(-c4ccc(O)c(O)c4)oc3c2)cc(OC)c1O [Compound 7]
activity against SARS-CoV-2 (words) [5]: showed activity
selectivity index [1]: 15
EC50 [1, 17]: 6.5 ± 0.7 µM
CC50 at 48 h [2]: > 100 µM
EC50 [3, 18]: > 100 µM
CC50 at 24 h [7]: > 100 µM
CC50 at 72 h [7]: 70 µM
cytotoxicity against Caco-2 cells ([8]; 24 h): No relevant cytotoxicity
cytotoxicity against Caco-2 cells ([8]; 72 h): a slight increase
EC50 [9]: > 100 µM
reduction in the OC43 titer ([10]; 4 µM, Vero-76, m.o.i. 0.1): 2 logs
reduction in the viral titer ([10]; 50, 20, 4 and 0.8 µM, Vero-76): significant dose-dependent reduction
virus titers of treated vs untreated samples (virucidal activity) [11]: did not significantly differ
protection of pre-treated Vero-76 monolayers from OC43 infection [12]: failed to inhibit OC43 infection
CC50 at 24 h [4]: > 100 µM
CC50 at 72 h [4]: > 100 µM
CC50 at 120 h [4]: 100 µM
block of OC43 viral binding (adsorption) [13]: efficiently able to block OC43 viral binding

COc1cc(/C=C/C(=O)O)ccc1O [ferulic acid]
activity against SARS-CoV-2 (words) [5]: No inhibitory effect
activity against OC43 (words) [1]: No inhibitory effect
activity against 229E [3]: No inhibitory effect

O=C(/C=C/c1ccccc1O)Oc1cc(O)c2c(=O)c(O)c(-c3ccc(O)c(O)c3)oc2c1 [Compound 4]
EC50 [1, 17]: > 78 µM
CC50 at 120 h [4]: 78 µM

COc1ccc(/C=C/C(=O)Oc2cc(O)c3c(=O)c(O)c(-c4ccc(O)c(O)c4)oc3c2)cc1OC [Compound 1]
activity against SARS-CoV-2 (words) [5]: no activity
activity against OC43 (words) [1]: no activity
EC50 [1, 17]: > 54.7 µM
CC50 at 120 h [4]: 54.7 µM

O=C(O)/C=C/c1ccc(O)cc1 [Compound A3]
EC50 [1, 19]: > 100 µM
CC50 [6]: > 100 µM

O=C(O)/C=C/c1ccc(O)c(O)c1 [Compound A8]
EC50 [1, 19]: > 100 µM
CC50 [2]: > 100 µM
EC50 [3, 20]: > 100 µM
CC50 [4]: > 100 µM

COc1cc(/C=C/C(=O)Oc2cc(O)c3c(=O)c(O)c(-c4ccc(O)c(O)c4)oc3c2)ccc1O [Compound 2]
EC50 [1, 17]: > 11.4 µM
CC50 at 120 h [4]: 11.4 µM

COc1cc(/C=C/C(=O)O)ccc1O [Compound A2]
EC50 [1, 19]: > 100 µM
CC50 [4]: > 100 µM

O=C(/C=C/c1cccc(O)c1)Oc1cc(O)c2c(=O)c(O)c(-c3ccc(O)c(O)c3)oc2c1 [Compound 5]
EC50 [1, 17]: > 75 µM
CC50 at 120 h [4]: 75 µM

CCN(CCO)CCCC(C)Nc1ccnc2cc(Cl)ccc12 (stereo not drawn) [Hydroxychloroquine, reference compound]
EC50 [1, 17]: 1.9 ± 0.8 µM
CC50 at 120 h [4]: 60 µM

O=C(O)/C=C/c1cccc(O)c1 [Compound A5]
EC50 [1, 19]: > 100 µM
CC50 [4]: > 100 µM

O=C(O)/C=C/c1ccccc1O [Compound A4]
EC50 [1, 19]: > 100 µM
CC50 [4]: > 100 µM

O=C(/C=C/c1ccc(O)c(O)c1)Oc1cc(O)c2c(=O)c(O)c(-c3ccc(O)c(O)c3)oc2c1 [Compound 8]
activity against SARS-CoV-2 (words) [5]: showed activity
EC50 [1, 17]: 15 µM
CC50 at 48 h [2]: > 100 µM
EC50 [3, 18]: > 100 µM
CC50 at 120 h [4]: 70 µM

COc1ccc(/C=C/C(=O)O)cc1OC [Compound A1]
EC50 [1, 19]: > 100 µM
CC50 [4]: > 100 µM

Dextran sulphate [reference compound]
protection of pre-treated Vero-76 monolayers from OC43 infection [12]: failed to inhibit OC43 infection

CCC(CC)COC(=O)[C@H](C)N[P@](=O)(OC[C@H]1O[C@@](C#N)(c2ccc3c(N)ncnn23)[C@H](O)[C@@H]1O)Oc1ccccc1 [Remdesivir, reference compound]
CC50 at 48 h [2]: > 100 µM
EC50 [3, 18]: 5 ± 1 µM
CC50 at 120 h [4]: > 100 µM

CCOC(=O)/C=C/[C@H](C[C@@H]1CCNC1=O)NC(=O)[C@@H](CC(=O)[C@@H](NC(=O)c1cc(C)on1)C(C)C)Cc1ccc(F)cc1 [Rupintrivir, reference compound]
EC50 [9]: 0.07 µM
CC50 [4]: > 100 µM

O=c1c(O)c(-c2ccc(O)c(O)c2)oc2cc(O)cc(O)c12 [Quercetin, reference compound]
activity against SARS-CoV-2 (words) [5]: no activity
activity against SARS-CoV-2 (words) ([5]; listed as quercetin): no anti-beta coronavirus activity
activity against OC43 (words) [1]: no activity
EC50 [1, 17]: > 20 µM
activity against OC43 (words) ([1]; listed as quercetin): no anti-beta coronavirus activity
CC50 at 48 h ([2]; mock-infected SK-MES-1 cells, 48 h post-treatment, MTT, read-out: SK-MES-1 CC50): > 100 µM
EC50 [3, 18]: 51 µM
CC50 at 24 h [7]: 88.7 µM
CC50 at 72 h [7]: 61 µM
EC50 [9]: > 100 µM
cytotoxicity against Vero-76 cells [14]: No cytotoxicity was detected
EC50 [15]: 4.88 µM
IC50 [16]: 6.79 µM
CC50 at 24 h [6]: > 100 µM
CC50 at 72 h [6]: 100 µM
CC50 at 120 h [6]: 20 µM
